Consider five compounds from publication PMC2788236 (The Journal of infectious diseases, 2009).

In assay [1] the test system is western equine encephalitis virus replicon. In words: microbe, parasite or virus in culture. It counts as cell-based.
Assay [2] has as its system Fort Morgan virus (FMV). It counts as cell-based.
Assay [3] relates to Fort Morgan virus (FMV).
The test system of assay [4] is Fort Morgan virus (FMV). In words: microbe, parasite or virus in culture. To be noted: BE(2)-C, 48 h, read-out: cell viability of FMV-infected cells.
Assay [5] concerns Sindbis virus (SINV). The assay is described as follows: microbe, parasite or virus in culture. The following applies: BE(2)-C, 48 h, read-out: cell viability of SINV-infected cells.

Turning to `O=C(NCc1ccccc1)C1CCN(C(=O)c2cc3sccc3n2Cc2ccc(F)cc2)CC1` [CCG32088], the “IC50, dose-response analysis (SAR, figure 4)” value in assay [1] was “submicromolar”.
Broadly, the viability is a read-out of living cells in per cent, often relative to untreated cells. Regarding `O=C(NCc1ccco1)C1CCN(C(=O)c2cc3sccc3n2Cc2ccc(F)cc2)CC1` [CCG32091, 1-({4-[(4-fluorophenyl)methyl]-4H-thieno[3,2-b]pyrrol-5-yl}-carbonyl)-N-(furan-2-ylmethyl)piperidine-4-carboxamide], the “selectivity index (CC50/IC50 ratio)” value in assay [1] is more than 20. In addition, in assay [2], the “suppression of infectious FMV production” value was more than 90%. For the same compound, in assay [3], the “concentration effectively suppressing FMV-induced cytopathic effect (as low as)” value is not above 3 µmol/L. The viability at 12.5 µM is 70% in assay [4] and 50% in assay [5].
Take `O=C(NCc1ccco1)C1CCN(C(=O)c2cc3sccc3n2Cc2ccc(Cl)cc2)CC1` [CCG32095]: the “IC50, dose-response analysis (SAR, figure 4)” value in assay [1] is “submicromolar”.
`COc1c(C)c2c(c(O)c1C/C=C(\C)CCC(=O)O)C(=O)OC2` [mycophenolic acid]: in assay [1], the “suppression of fLUC expression” value is ~ 80%.
What is called IC50 is the concentration needed to halve the response being measured. Turning to `NC(=O)c1ncn([C@@H]2O[C@H](CO)[C@@H](O)[C@H]2O)n1` [ribavirin], in assay [1], the “selectivity index (CC50/IC50 ratio)” value was found to be 19 and the “suppression of fLUC expression” value is ~ 80%. Further, the IC50 in assay [1] (Western equine encephalitis virus, BSR-T7/5, read-out: IC50, inhibition of fLUC activity) was 16 µM.
